Assay results: article PMC12867150, “A fungi-derived cyclic peptide enhances Th9-mediated antitumor immunity by targeting ZAP70 and SREBP1” (The Journal of Clinical Investigation, 2025)
Where “and” joins values, the source holds several entries; their conditions need not be identical. Equal entries are not always repeated.

Columns and labels:
[1] = system: chromatin accessibility in Th9 cells; experiment: Bulk ATAC-seq of Th9 cells (Figure 3C, S3E); type: cell-based, mouse; details: result in words
Source text: Raw FASTQ reads were subjected to quality control using Trim Galore to remove adapter sequences and low-quality bases. Cleaned reads were aligned to the GRCm38 mouse reference genome using Bowtie2. Low-quality alignments were filtered out using SAMtools, and PCR duplicates were removed using Sambamba to reduce technical artifacts. ENCODE blacklist regions were excluded using BEDtools. Read positions were adjusted using alignmentSieve, followed by sorting and indexing with SAMtools to generate BAM files. Peak calling was conducted using MACS3 to identify regions of open chromatin indicative of accessible regulatory elements.

[2] = system: mitochondria of Th9 cells; experiment: Flow cytometry of mitochondrial membrane potential with TMRM (Figure 4N); type: cell-based, mouse
Description: (§1) Mitochondrial mass and membrane potential were assessed using MitoTracker™ Deep Red FM (Thermo Fisher Scientific, catalog M22426) and TMRM (tetramethylrhodamine methyl ester; Macklin, catalog T868125), respectively, following the manufacturers’ protocols. Cells were incubated with the respective dyes, washed, and subjected to flow cytometry or fluorescence microscopy analysis. For ultrastructural assessment, mitochondrial number and diameter were quantified from high-resolution transmission electron microscopy (TEM) images using ImageJ software.

[3] = system: mitochondria of human Th9 CAR T cells; experiment: MitoTracker of human Th9 CAR T cells (S9G); type: cell-based; details: for mitochondrial mass using Mito Tracker in human Th9 CAR-T cells: flow cytometry, Supplemental Figure 9G
Description: as §1, with “software. […]” for “software.”
(C) Flow-cytometric analysis of infection efficiency in Th9 cells transduced with a
CD19-directed CAR lentivirus. […]
(G) Flow-cytometric analysis of mitochondrial mass using Mito Tracker in human
Th9 CAR-T c e l l s (n = 3). […]
(H) and quantification (I) (n = 5 mice per group). Statistical analysis was performed
using one-way ANOVA with Tukey’s post hoc test (A and B), or two-tailed unpaired
Student’s t-test (E–G, and I). Repeated data are presented as mean ± SEM. *p < 0.05,
(also on this page, place not known: TP cells ANOV A 30IL-9+ cells (%) Fato Fato Fato Fato A SSC GzmB CtrlEpA MFIofMitoTracker (×102) GF NormalizedATPlevel CtrlEpA 4MFI of Mito Tracker (×105) CtrlEpA0 GzmB+ cells (%) CD4 10 20 IL-9+ cells (%) Day60 10 20 30 Ctrl)

Raji-luciferase tumor = experiment: Raji-luciferase xenograft, survival (Figure 8L); type: in vivo, NSG mice; details: EpA-treated human Th9 CAR T cells 2 × 10^6 i.v.; n = 5; result in words
Source text: Representative plots (A) and quantification (B) (n = 4). (C) Quantitative PCR analysis of IL9, IRF4, and SPI1 mRNA expression in human Th9 cells (n = 3). (D) Flow-cytometric analysis of mitochondrial membrane potential in human Th9 cells (n = 3). (E) Luciferase-based assay analysis of intracellular ATP levels in human Th9 cells (n = 5). (F) Flow-cytometric analysis of phosphorylated ZAP70 in human Th9 cells (n = 3). (G) Flow-cytometric analysis of TNF-α expression in human Th9 cells (n = 4). (H) Cytotoxicity assay of EpA-treated or control CD19 CAR Th9 cells against Raji lymphoma target cells at indicated effector-to-target (E/T) ratios (n = 3). (I) Schematic diagram of the in vivo Raji-luciferase xenograft model in NSG mice receiving control or EpA-treated human Th9 CAR T cells. (J and K) Representative bioluminescence imaging (J) and quantification of tumor radiance (K) in NSG mice at indicated time points after adoptive transfer. […] Statistical significance was determined using 2-tailed unpaired Student’s t test (B–H), 2-way ANOVA followed by Šidák’s post hoc test (K), and log-rank test (L). […]
For xenograft models, M-NSG mice were intravenously inoculated with 1 × 10^6 Raji-CD19 tumor cells. […] Tumor progression and immune cell infiltration were subsequently monitored according to experimental endpoints.

SREBP1 = experiment: CETSA of SREBP1 (Figure 6D-E); type: binding; details: result in words
Description: Jurkat or 293T cells were washed twice with PBS and resuspended in PBS containing protease and phosphatase inhibitors. Cells were lysed by 3 cycles of liquid nitrogen snap-freezing and thawing at room temperature. […] One aliquot from each group was maintained at room temperature, and the others were heated for 3 minutes at 3 °C increments from 43°C to 64°C. Samples were then analyzed by SDS-PAGE and immunoblotting to assess protein thermal stability and compound binding.

anteiso-C15 Leu7 surfactin [EpA]
Ifng accessibility and expression [1]: further reduced | Il9 locus accessibility and transcription [1]: increased accessibility and transcription | global chromatin accessibility [1]: only modestly affected | TMRM ([2]; Figure 4N, individual replicates, (n = 5)): 178315 and 162266 and 165932 and 168795 and 170537 | mitochondrial membrane potential ([2]; result in words): elevated mitochondrial membrane potential | mitochondrial mass using Mito Tracker in human Th9 CAR-T cells ([3]; replicate 1): 3352 | mitochondrial mass using Mito Tracker in human Th9 CAR-T cells ([3]; replicate 2): 3381 | mitochondrial mass using Mito Tracker in human Th9 CAR-T cells ([3]; replicate 3): 3457 | mitochondrial potential, Th9 CAR T ([3]; result in words): elevated | survival (Raji-luciferase tumor): significantly prolonged survival | thermal stability of SREBP1 (SREBP1): enhanced thermal stability of SREBP1
